Consider 30 molecules from ChEMBL document CHEMBL1136484, “3D-QSAR studies on natural acetylcholinesterase inhibitors of Sarcococca saligna by comparative molecular field analysis (CoMFA)” (Bioorg Med Chem Lett, 2003).

In this test the target is Acetylcholinesterase (Homo sapiens, UniProt P22303). The experiment in a line: Compound was tested for the in silico inhibition of acetylcholinesterase.
Chain of Acetylcholinesterase (P22303 whole entry): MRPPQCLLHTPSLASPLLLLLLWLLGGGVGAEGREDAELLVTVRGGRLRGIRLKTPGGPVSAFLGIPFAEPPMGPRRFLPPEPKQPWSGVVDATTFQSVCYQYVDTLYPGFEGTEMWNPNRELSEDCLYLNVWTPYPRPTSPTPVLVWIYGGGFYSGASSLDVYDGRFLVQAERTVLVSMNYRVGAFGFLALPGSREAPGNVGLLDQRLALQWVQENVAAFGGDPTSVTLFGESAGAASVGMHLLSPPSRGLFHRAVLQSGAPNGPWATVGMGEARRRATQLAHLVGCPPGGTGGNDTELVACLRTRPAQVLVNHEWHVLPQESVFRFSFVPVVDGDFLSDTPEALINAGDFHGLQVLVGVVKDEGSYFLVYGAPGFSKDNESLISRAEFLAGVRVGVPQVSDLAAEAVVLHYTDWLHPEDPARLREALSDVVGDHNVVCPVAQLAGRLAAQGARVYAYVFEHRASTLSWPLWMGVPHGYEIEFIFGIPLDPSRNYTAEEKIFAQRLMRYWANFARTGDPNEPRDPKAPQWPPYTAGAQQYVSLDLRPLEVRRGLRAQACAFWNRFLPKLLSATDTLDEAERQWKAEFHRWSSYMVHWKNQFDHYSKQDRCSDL

As a reminder, the IC50 is the concentration that gives 50% inhibition. On to `C/C=C(\C)C(=O)NC1=CC[C@@]2(C)[C@@H](CC[C@H]3C4CC[C@H]([C@H](C)N(C)C)[C@@]4(C)CC[C@@H]32)C1=O` (stereo not given in full), for which the midpoint of inhibition, the IC50, lay at 13.8 µM.

Regarding `C/C=C(\C)C(=O)N[C@H]1CC[C@@]2(C)C(=CC[C@H]3C4=CC[C@H]([C@H](C)N(C)C)[C@@]4(C)CC[C@@H]32)C1=O`, the concentration for half-maximal inhibition (IC50) is 5.75 µM.

`CN[C@H]1CC[C@@]2(C)C(CC[C@H]3[C@@H]4CC[C@H]([C@H](C)N(C)C)[C@@]4(C)CC[C@@H]32)C1` (stereo not given in full) had a half-inhibitory concentration (IC50) of 6.17 µM.

`CC(=O)N[C@H]1CC[C@@]2(C)[C@@H](CC[C@@H]3[C@@H]2CC[C@]2(C)[C@@H]([C@H](C)N(C)C)CC[C@@H]32)C1` gave an IC50 of 69.2 µM.

As for `CN[C@@H](C)C1=CC[C@H]2[C@@H]3CC=C4C[C@@H](OC)CC[C@]4(C)[C@H]3CC[C@]12C`, the IC50 was 83.2 µM.

`C/C(=C\C(=O)N(C)[C@H]1CC[C@@]2(C)[C@@H](CC[C@@H]3[C@@H]2CC[C@]2(C)[C@@H]([C@H](C)N(C)C)CC[C@@H]32)C1)C(C)C` gave a 50% inhibitory concentration (IC50) of 6.46 µM.

`C[C@H](NC=O)[C@H]1CC[C@H]2[C@@H]3CC[C@H]4C[C@@H](N(C)C)CC[C@]4(C)[C@H]3CC[C@]12C` showed a concentration for half-maximal inhibition (IC50) of 6.46 µM.

Turning to `C/C=C(\C)C(=O)N[C@@H]1[C@H](OC(C)=O)[C@@H]2CC[C@@H]3[C@H](CC[C@]4(C)[C@@H]([C@H](C)N(C)C)CC[C@@H]34)[C@@]2(C)C[C@@H]1O`, it took 182 µM to reach half-maximal inhibition (IC50).

On to `C/C=C(\C)C(=O)N[C@H]1CC[C@@]2(C)C(=CC[C@H]3[C@@H]4CC[C@H]([C@H](C)N(C)C)[C@@]4(C)CC[C@@H]32)[C@H]1O`, for which the IC50 is 30.2 µM.

Regarding `CC(=O)N(C)[C@@H](C)[C@H]1CC[C@H]2[C@@H]3CC[C@H]4C[C@@H](N(C)C)CC[C@]4(C)[C@H]3CC[C@]12C`, the IC50 is 50.1 µM.

As for `CC(=O)O[C@H]1[C@@H](NC(=O)c2ccccc2)[C@@H](O)C[C@]2(C)[C@H]3CC[C@]4(C)[C@@H]([C@H](C)N(C)C)CC[C@H]4[C@@H]3CC[C@@H]12`, the half-inhibitory concentration (IC50) was 229 µM. This IC50 lies about 4.6-fold higher than the previous one.

For the molecule `C/C=C(\C)C(=O)N[C@@H]1C=C2CC[C@H]3[C@@H]4CC[C@H]([C@H](C)N(C)C)[C@@]4(C)CC[C@@H]3[C@@]2(C)C[C@@H]1O`, the IC50 is 15.8 µM.

The molecule `C[C@@H]([C@H]1CC[C@H]2[C@@H]3CC[C@H]4C[C@@H](NC(=O)c5ccccc5)[C@@H](O)C[C@]4(C)[C@H]3CC[C@]12C)N(C)C` gave a concentration for half-maximal inhibition (IC50) of 77.6 µM.

Take `C[C@@H]([C@H]1CC[C@H]2[C@@H]3CC=C4C[C@@H](N(C)C)CC[C@]4(C)[C@H]3CC[C@]12C)N(C)C`: half-maximal inhibition (IC50) required 39.8 µM.

Turning to `C/C=C(\C)C(=O)N[C@H]1C(OC(C)=O)C[C@@]2(C)C(CC[C@H]3C4CC=C([C@H](C)N(C)C)[C@@]4(C)CC[C@@H]32)[C@H]1OC(C)=O` (stereo not given in full), half-maximal inhibition (IC50) required 50.1 µM.

For the molecule `CN[C@H]1CC[C@@]2(C)[C@@H](CC[C@@H]3[C@@H]2CC[C@]2(C)C([C@H](C)N(C)C)=CC[C@@H]32)C1`, the IC50 was 20.4 µM.

In turn, `CC(=O)N(C)[C@H]1CC[C@@]2(C)[C@@H](CC[C@@H]3[C@@H]2CC[C@]2(C)[C@@H]([C@H](C)N(C)C)CC[C@@H]32)C1` gave a half-inhibitory concentration (IC50) of 70.8 µM.

In turn, `CC(=O)O[C@@H]1C2CC[C@H]3C4CC=C([C@H](C)N(C)C)[C@@]4(C)CC[C@@H]3[C@@]2(C)CC[C@@H]1NC(=O)C=C(C)C` (stereo not given in full) showed a half-inhibitory concentration (IC50) of 5.25 µM.

`C/C=C(\C)C(=O)N[C@@H]1C=C2CC[C@H]3C4=CC[C@H]([C@H](C)N(C)C)[C@@]4(C)CC[C@@H]3[C@@]2(C)CC1` showed an IC50 of 7.76 µM.

The molecule `CO[C@H]1CC[C@@]2(C)C(=CC[C@@H]3[C@@H]2CC[C@]2(C)C([C@H](C)N(C)C=O)=CC[C@@H]32)C1` showed an IC50 of 49 µM. Against the preceding molecule, the IC50 is about 6.3-fold higher.

With `C[C@@H]([C@H]1CC[C@H]2[C@@H]3CC[C@H]4C(=O)C(NC(=O)c5ccccc5)=CC[C@]4(C)[C@H]3CC[C@]12C)N(C)C`, half-maximal inhibition (IC50) required 5.25 µM.

On to `C/C=C(\C)C(=O)N[C@@H]1[C@H](OC(C)=O)[C@@H]2CC[C@H]3C4=CC[C@H]([C@H](C)N(C)C)[C@@]4(C)CC[C@@H]3[C@@]2(C)C[C@@H]1O`, for which the IC50 was 61.7 µM.

Take `CO[C@H]1CC[C@@]2(C)C(=CC[C@H]3[C@@H]4CC[C@H]([C@H](C)N(C)C)[C@@]4(C)CC[C@@H]32)C1`: inhibition was half-maximal at 42.7 µM (IC50).

Molecule `C[C@@H]([C@H]1CC[C@H]2[C@@H]3CC[C@H]4C[C@@H](N(C)C(=O)/C=C/c5ccccc5)CC[C@]4(C)[C@H]3CC[C@]12C)N(C)C` [SALIGCINNAMIDE] showed a half-inhibitory concentration (IC50) of 19.5 µM.

The molecule `C/C(=C\C(=O)N(C)[C@H]1CC[C@@]2(C)[C@@H](CC[C@@H]3[C@@H]2CC[C@]2(C)C([C@H](C)N(C)C)=CC[C@@H]32)C1)C(C)C` had a concentration for half-maximal inhibition (IC50) of 6.17 µM.

Take `C[C@@H]([C@H]1CC[C@H]2[C@@H]3CC[C@H]4C[C@@H](NC(=O)c5ccccc5)CC[C@]4(C)[C@H]3CC[C@]12C)N(C)C` [EPIPACHYSAMINE D]: the IC50 is 28.8 µM.

`C/C=C(\C)C(=O)N[C@@H]1[C@H](O)C2CC[C@H]3C4=CC[C@H]([C@H](C)N(C)C)[C@@]4(C)CC[C@@H]3[C@@]2(C)C[C@@H]1O` (stereo not given in full) gave a 50% inhibitory concentration (IC50) of 33.1 µM.

The molecule `C/C=C(\C)C(=O)N[C@H]1CC[C@@]2(C)C(=CC[C@H]3[C@@H]4CC[C@H]([C@H](C)N(C)C)[C@@]4(C)CC[C@@H]32)C1=O` had an IC50 of 7.08 µM.

Regarding `CC(=O)N(C)[C@@H](C)[C@H]1CC[C@H]2[C@@H]3CC=C4C[C@@H](N(C)C)CC[C@]4(C)[C@H]3CC[C@]12C`, inhibition was half-maximal at 20 µM (IC50).

As to `CO[C@@H]1CC2=CC[C@@H]3[C@H](CC[C@]4(C)C([C@H](C)N(C)C)=CC[C@@H]34)[C@@]2(C)C[C@@H]1O`, the IC50 was 251 µM.
